Assay results reported in PMC7557599, “Cyclic Peptide-Gadolinium Nanoparticles for Enhanced Intracellular Delivery” (Pharmaceutics, 2020).

These molecules were tested on CCRF-CEM cells (assay: Time-dependent antiproliferative activity assay (MTS)). Conditions: drug 5 µM, [(WR)5C]-GdNPs 50 µM, 72 h incubation, MTS 490 nm, triplicate (n = 3).
Format: cell-based, human
Description: Antiproliferative activities of several anticancer drugs, including epirubicin, cisplatin, gemcitabine, etoposide, carboplatin and camptothecin, were evaluated in the presence and absence of [(WR)5C]-GdNPs in CCRF-CEM cells. Different time periods, including 24, 48 and 72 h, were selected. The CellTiter 96 aqueous one solution cell proliferation assay kit (Promega, Madison, WI, USA) was used for the assay. The CCRF-CEM cells (5 × 10^4) were seeded in 100 µL of the media. The cells then placed in each well of the 96-well culture plate. The cells were incubated with drugs alone and [(WR)5C]-GdNPs-loaded drugs at a similar condition in triplicates. To confirm the results, DMSO (1% in water) was used as a control. To entrap the drug, the physical mixing method was used. A calculated volume of the drug solution was mixed with the desired volume of an aqueous solution of [(WR)5C]-GdNPs physically to obtain a final concentration of the drug (5 μM) and the [(WR)5C]-GdNPs (50 μM). The mixture was vortexed until the solution became homogeneous and clear. The mixture was incubated for 30 min at room temperature before adding to the cells to obtain optimized performance. The incubation of cells with their treatments was carried out at 37 °C for 24–72 h. The cell viability assay was performed by adding 20 μL of CellTiter 96 aqueous solution. The cells were incubated for another hour with the MTS reagent. The formazan absorbance was measured at 490 nm by a microplate reader. The percentage of cell survival was calculated as previously reported.
Several anticancer drugs such as epirubicin, cisplatin, gemcitabine, etoposide, carboplatin and camptothecin were evaluated for their antiproliferative activities at different time periods, including 24, 48 and 72 h. […] The improved antiproliferative activity of cisplatin and carboplatin could be due to the chelating of the thiol group of cysteine with these anticancer agents or binding of metals to peptides as GdNPs. […]

Compound | enhancement of antiproliferative potency in the presence of [(WR)5C]-GdNPs
CC[C@@]1(O)C(=O)OCc2c1cc1n(c2=O)Cc2cc3ccccc3nc2-1 [camptothecin] | 8%
COc1cccc2c1C(=O)c1c(O)c3c(c(O)c1C2=O)C[C@@](O)(C(=O)CO)C[C@@H]3O[C@H]1C[C@H](N)[C@@H](O)[C@H](C)O1 [epirubicin] | 6%
COc1cc([C@@H]2c3cc4c(cc3[C@@H](O[C@@H]3O[C@@H]5CO[C@@H](C)O[C@H]5[C@H](O)[C@H]3O)[C@H]3COC(=O)[C@H]23)OCO4)cc(OC)c1O [etoposide] | 2%
